Values after ≈ are worked out from the molar mass of the structure shown. Like-named read-outs stand apart in the source and are kept apart here.
Legend:
[1] = test system: Acinetobacter baumannii ATCC 17978; assay: MIC on Acinetobacter baumannii strains; assay type: cell-based; details: ATCC17978
Text: (§1) Twelve strains of Acinetobacter baumannii, A. baumannii ATCC 17978 (ATCC-BAA-1605, ATCC-BAA-1789, ATCC-BAA-1790, ATCC-BAA-1791, ATCC-BAA-1792, ATCC-BAA-1793, ATCC-BAA-1794, ATCC-BAA-1795, ATCC-BAA-1799, ATCC-BAA-1800, ATCC 19606, ATCC 17978) were used to determine the minimum inhibitory concentration (MIC) of the compounds by micro-liquid dilution method according to the Institute of Clinical and Laboratory Standard (CLSI) requirements.

[2] = test system: Acinetobacter baumannii ATCC 19606; assay: MIC on Acinetobacter baumannii strains; assay type: cell-based; details: ATCC19606
Text: as §1

[3] = test system: Acinetobacter baumannii ATCC-BAA-1605; assay: MIC on Acinetobacter baumannii strains; assay type: cell-based; details: ATCCBAA1605, ATCC-BAA-1605, read-out: MIC
Text: as §1

[4] = test system: Acinetobacter baumannii ATCC-BAA-1789; assay: MIC on Acinetobacter baumannii strains; assay type: cell-based; details: ATCCBAA1789
Text: as §1

[5] = test system: Acinetobacter baumannii ATCC-BAA-1790; assay: MIC on Acinetobacter baumannii strains; assay type: cell-based; details: ATCCBAA1790, ATCC-BAA-1790, read-out: MIC
Text: as §1

[6] = test system: Acinetobacter baumannii ATCC-BAA-1791; assay: MIC on Acinetobacter baumannii strains; assay type: cell-based; details: ATCCBAA1791
Text: as §1

[7] = test system: Acinetobacter baumannii ATCC-BAA-1792; assay: MIC on Acinetobacter baumannii strains; assay type: cell-based; details: ATCCBAA1792, ATCC-BAA-1792, read-out: MIC
Text: as §1

[8] = test system: Acinetobacter baumannii ATCC-BAA-1793; assay: MIC on Acinetobacter baumannii strains; assay type: cell-based
Text: as §1

[9] = test system: Acinetobacter baumannii ATCC-BAA-1794; assay: MIC on Acinetobacter baumannii strains; assay type: cell-based; details: ATCCBAA1794, ATCC-BAA-1794, read-out: MIC
Text: as §1

[10] = test system: Acinetobacter baumannii ATCC-BAA-1795; assay: MIC on Acinetobacter baumannii strains; assay type: cell-based; details: ATCCBAA1795
Text: as §1

[11] = test system: Acinetobacter baumannii ATCC-BAA-1799; assay: MIC on Acinetobacter baumannii strains; assay type: cell-based; details: ATCCBAA1799, ATCC-BAA-1799, read-out: MIC
Text: as §1

[12] = test system: Acinetobacter baumannii ATCC-BAA-1800; assay: MIC on Acinetobacter baumannii strains; assay type: cell-based
Text: as §1

[13] = test system: K. pneumoniae ATCC BAA-205 (TEM-1/SHV-1/SHV-12); assay: MIC by micro-liquid dilution method (CLSI); assay type: cell-based, Klebsiella pneumonia; details: Klebsiella pneumoniae, ATCCBAA205; K. pneumoniae ATCCBAA-205; read-out: MIC
[14] = test system: K. pneumoniae ATCC BAA-1705 (KPC-2); assay: MIC by micro-liquid dilution method (CLSI); assay type: cell-based, Klebsiella pneumonia; details: Klebsiella pneumoniae, ATCCBAA1705; K. pneumoniae ATCCBAA-1705; read-out: MIC
[15] = test system: K. pneumoniae ATCC BAA-2470 (NDM-1); assay: MIC by micro-liquid dilution method (CLSI); assay type: cell-based, Klebsiella pneumonia; details: Klebsiella pneumoniae, ATCCBAA2470; K. pneumoniae ATCCBAA-2470; read-out: MIC
[16] = test system: E. coli ATCC BAA-2523 (OXA-48); assay: MIC by micro-liquid dilution method (CLSI); assay type: cell-based; details: Escherichia coli, ATCCBAA2523
Text: (§2) Three strains of Klebsiella pneumonia, K. pneumoniae ATCC BAA-205 (TEM-1/SHV-1/SHV-12), K. pneumoniae ATCC BAA-1705 (KPC-2), K. pneumoniae ATCC BAA-2470 (NDM-1); three strains of Pseudomonas aeruginosa, P. aeruginosa NCTC13437 (VIM-10; VEB-1), P. aeruginosa PA 14 and P. aeruginosa ATCC 35151; four strains of Escherichia coli, E. coli NCTC 13476 (IMP-1 type), E. coli ATCC BAA-2523 (OXA-48), E. coli MG1655Δtol C, E. coli ATCC 25922; one strain of Acinetobacter baumannii, A. baumannii ATCC 17978 and one strain of Staphylococcus aureus, S. aureus NRS384 were used to determine the minimum inhibitory concentration (MIC) of the compounds by micro-liquid dilution method according to the Institute of Clinical and Laboratory Standard (CLSI) requirements.

E. coli MG1655Δtol C = assay: MIC by micro-liquid dilution method (CLSI); assay type: cell-based; details: Escherichia coli
Text: as §2

[17] = test system: E. coli NCTC 13476 (IMP-1 type); assay: MIC by micro-liquid dilution method (CLSI); assay type: cell-based; details: Escherichia coli; E. coli NCTC13476; read-out: MIC
Text: as §2

P. aeruginosa PA 14 = assay: MIC by micro-liquid dilution method (CLSI); assay type: cell-based; details: Pseudomonas aeruginosa, PA14; P. aeruginosa PA 14; read-out: MIC
Text: as §2

P. aeruginosa ATCC 35151 = assay: MIC by micro-liquid dilution method (CLSI); assay type: cell-based; details: Pseudomonas aeruginosa
A. baumannii ATCC 17978 = assay: MIC by micro-liquid dilution method (CLSI); assay type: cell-based; details: Acinetobacter baumannii; A. baumannii ATCC17978; read-out: MIC
E. coli ATCC 25922 = assay: MIC by micro-liquid dilution method (CLSI); assay type: cell-based; details: Escherichia coli
[18] = E. coli ATCCBAA-2523, read-out: MIC
[19] = P. aeruginosa ATCC35151, read-out: MIC
[20] = E. coli ATCC25922, read-out: MIC
[21] = ATCCBAA1793, ATCC-BAA-1793, read-out: MIC
[22] = ATCCBAA1800, ATCC-BAA-1800, read-out: MIC

Structure (SMILES)	MIC [1] [µg/mL]	MIC [2] [µg/mL]	MIC [3] [µg/mL]	MIC [4] [µg/mL]	MIC [5] [µg/mL]	MIC [6] [µg/mL]	MIC [7] [µg/mL]	MIC [9] [µg/mL]	MIC [10] [µg/mL]	MIC [11] [µg/mL]	MIC [13] [µg/mL]	MIC [14] [µg/mL]	MIC [15] [µg/mL]	MIC [16, 18] [µg/mL]	MIC (E. coli MG1655Δtol C) [µg/mL]	MIC [17] [µg/mL]	MIC (P. aeruginosa PA 14) [µg/mL]	MIC (A. baumannii ATCC 17978) [µg/mL]	MIC [8, 21] [µg/mL]	MIC [12, 22] [µg/mL]	also measured
C[C@@H](O)[C@H]1C(=O)N2C(C(=O)O)=C(SCCN=CN)C[C@H]12 [Imipenem, reference compound]	0.25 (≈ 0.835 µM)	0.5 (≈ 1.67 µM)	32 (≈ 107 µM)	16 (≈ 53.4 µM)	64 (≈ 214 µM)	32 (≈ 107 µM)	64 (≈ 214 µM)	32 (≈ 107 µM)	1 (≈ 3.34 µM)	64 (≈ 214 µM)	–	–	–	–	–	–	–	–	–	–	MIC ([8]; ATCCBAA1793): 128 µg/mL (≈ 428 µM); MIC ([12]; ATCCBAA1800): 128 µg/mL (≈ 428 µM)
CC1(C)[C@H](NC(=O)/C(=N\OCCOc2ccc3c(c2)CCN(CCCNC(=N)N)C3)c2csc(N)n2)C(=O)N1OS(=O)(=O)O [Compound 7]	2 (≈ 3.06 µM)	8 (≈ 12.2 µM)	8 (≈ 12.2 µM)	8 (≈ 12.2 µM)	8 (≈ 12.2 µM)	2 (≈ 3.06 µM)	8 (≈ 12.2 µM)	4 (≈ 6.12 µM)	4 (≈ 6.12 µM)	8 (≈ 12.2 µM)	8 (≈ 12.2 µM)	4 (≈ 6.12 µM)	2 (≈ 3.06 µM)	0.25 (≈ 0.382 µM)	≤ 0.125	1 (≈ 1.53 µM)	16 (≈ 24.5 µM)	1 (≈ 1.53 µM)	4 (≈ 6.12 µM)	4 (≈ 6.12 µM)	MIC (P. aeruginosa ATCC 35151; [19]): 0.5 µg/mL (≈ 0.765 µM); MIC (E. coli ATCC 25922; [20]): 0.5 µg/mL (≈ 0.765 µM)
CC1(C)[C@H](NC(=O)/C(=N\OCCOc2ccc3c(c2)CCN(C(=N)NCCCN)C3)c2csc(N)n2)C(=O)N1OS(=O)(=O)O [Compound 4]	0.5 (≈ 0.765 µM)	8 (≈ 12.2 µM)	8 (≈ 12.2 µM)	4 (≈ 6.12 µM)	4 (≈ 6.12 µM)	2 (≈ 3.06 µM)	4 (≈ 6.12 µM)	4 (≈ 6.12 µM)	4 (≈ 6.12 µM)	4 (≈ 6.12 µM)	8 (≈ 12.2 µM)	1 (≈ 1.53 µM)	0.5 (≈ 0.765 µM)	–	≤ 0.125	0.25 (≈ 0.382 µM)	1 (≈ 1.53 µM)	0.5 (≈ 0.765 µM)	4 (≈ 6.12 µM)	8 (≈ 12.2 µM)	MIC [16]: ≤ 0.125 µg/mL; MIC (P. aeruginosa ATCC 35151; ATCC35151): ≤ 0.125 µg/mL; MIC (E. coli ATCC 25922; ATCC25922): ≤ 0.125 µg/mL
CC1(C)[C@H](NC(=O)/C(=N\OCCOc2ccc3c(c2)CCN(C(=N)N)C3)c2csc(N)n2)C(=O)N1OS(=O)(=O)O [Compound 3]	4 (≈ 6.7 µM)	8 (≈ 13.4 µM)	16 (≈ 26.8 µM)	16 (≈ 26.8 µM)	16 (≈ 26.8 µM)	16 (≈ 26.8 µM)	16 (≈ 26.8 µM)	8 (≈ 13.4 µM)	8 (≈ 13.4 µM)	16 (≈ 26.8 µM)	8 (≈ 13.4 µM)	4 (≈ 6.7 µM)	2 (≈ 3.35 µM)	0.25 (≈ 0.419 µM)	≤ 0.0039	–	4 (≈ 6.7 µM)	2 (≈ 3.35 µM)	8 (≈ 13.4 µM)	8 (≈ 13.4 µM)	MIC (P. aeruginosa ATCC 35151; [19]): 0.0625 µg/mL (≈ 0.105 µM); MIC (E. coli ATCC 25922; [20]): 0.25 µg/mL (≈ 0.419 µM)
CC1(C)[C@H](NC(=O)/C(=N\OCCOc2ccc3c(c2)CC[N+](C)(CCCN)C3)c2csc(N)n2)C(=O)N1OS(=O)(=O)[O-] (stereo partly drawn) [Compound 5]	1 (≈ 1.6 µM)	16 (≈ 25.6 µM)	16 (≈ 25.6 µM)	8 (≈ 12.8 µM)	8 (≈ 12.8 µM)	2 (≈ 3.2 µM)	16 (≈ 25.6 µM)	16 (≈ 25.6 µM)	16 (≈ 25.6 µM)	16 (≈ 25.6 µM)	–	–	–	–	–	–	–	–	16 (≈ 25.6 µM)	16 (≈ 25.6 µM)	–
CC1(C)[C@H](NC(=O)/C(=N\OCCOc2ccc3c(c2)CCN(CCCN)C3)c2csc(N)n2)C(=O)N1OS(=O)(=O)O [Compound 6]	2 (≈ 3.27 µM)	8 (≈ 13.1 µM)	16 (≈ 26.2 µM)	8 (≈ 13.1 µM)	8 (≈ 13.1 µM)	4 (≈ 6.54 µM)	8 (≈ 13.1 µM)	8 (≈ 13.1 µM)	8 (≈ 13.1 µM)	8 (≈ 13.1 µM)	16 (≈ 26.2 µM)	4 (≈ 6.54 µM)	4 (≈ 6.54 µM)	0.25 (≈ 0.409 µM)	≤ 0.125	1 (≈ 1.63 µM)	16 (≈ 26.2 µM)	4 (≈ 6.54 µM)	8 (≈ 13.1 µM)	8 (≈ 13.1 µM)	MIC (P. aeruginosa ATCC 35151; [19]): 0.5 µg/mL (≈ 0.817 µM); MIC (E. coli ATCC 25922; [20]): 0.5 µg/mL (≈ 0.817 µM)

— patent publication US11459323B2, “Monocyclic β-lactam compound for treating bacterial infection” (MEDSHINE DISCOVERY INC., priority 2018, dated 2022)
